Assay results published in patent US20010010814A1, “[…] ENCODING PRO-APOPTOTIC BAX GENE AND USES THEREOF” (priority 1998, published 2001).
Where two headings read alike, the source gives them in different places.

Legend:
[1] = tested on: SW626 cells; experiment: MTS cell viability assay, SW626; assay type: cell-based; settings: Homo sapiens, SW626, 48 h, read-out: IC50 of taxol
Procedure: (§1) The replication-incompetent adenoviral type 5 recombinant vectors encoding bax (Ad/Bax), and Cre recombinase (Ad/Cre), were generated as described. Ad/LacZ, encoding the E. coli LacZ gene, was provided by Robert Gerald (The Center for Transgene Technology and Gene Therapy, Leuven. Belgium). All recombinant adenoviruses were propagated in 293 cells and purified by centrifugation in CsCl gradients by a standard protocol. For viral infection in dishes, the cells were plated in 6 or 96 wells the day before the experiment. The viruses were then added at a designed multiplicity of infection (moi) and incubated for 1 to 2 hours. […]
(§2) Cells were seeded in either 6-well or 96-well plates 24 hours before viral infection. […] Cell viability was determined using a calorimetric method with 3-(4,5-dimehtylthiazol-2-yl)-5-(3-carboxymethoxyphenyl)-2-(4-sulfophenyl)-2H-tetrazolium (MTS) according to the instructions of the manufacturer (Promega). […]
(§3) To determine the cytotoxic effects of Bax, five ovarian cancer cell lines were co-infected with Ad/Bax and Ad/Cre or Ad/lacZ and Ad/Cre at ratio of 5 to 1 at a total moi of 100. After 48 hours, cell viability was determined by MTS assays (FIG. 11). […]
(§4) Stable overexpression of Bax in some cancer cell lines synergizes the killing effect of chemotherapy or radiotherapy. […] Cell viability was measured by an MTS assay. […]

[2] = tested on: primary ovarian cancer cells from ascites of patients; experiment: MTS cell viability assay, primary ovarian cancer cells; assay type: cell-based, human
Procedure: Primary ovarian cancer cells were isolated by affinity purification from ascites obtained from patients with ovarian cancer. Fresh ascites was centrifuged to collect cells in suspension. The cells were then washed and resuspended in PBS with 0.1% BSA. The CC49 antibody (provided by Dr. Jeffrey Schlom, NIH, Bethesda, Md.), which specifically recognizes the pancarcinomatous antigen TAG-72, was added to the cell suspension at a concentration of 1 μg/10^7 cells, and incubated at 4° C. for one hour. To isolate the immuno-complex formed by the CC49 antibody and the TAG-72 expressing tumor cells, magnetic Dynabeads (Dynal Inc. Lake success, N.Y.) coated with a secondary anti-panmouse IgG antibody were added at a ratio of 4 beads/cell, according to the protocol of the manufacturer. The bead-targeted complexes were then washed and captured with a magnetic particle concentrator (Dynal Inc.). Finally, the purified cells were released from the beads by brief trypsinization and recovered in RPMI complete medium.
as §2

[3] = tested on: SKOV3.ip1 cells; experiment: MTS cell viability assay, SKOV3.ip1; assay type: cell-based; settings: Homo sapiens, 48 h, read-out: IC50 of taxol
Procedure: as §1, §2, §3, §4

[4] = combined treatment with Bax (Ad/Bax plus Ad/Cre, moi 100)

CC(=O)O[C@H]1C(=O)[C@@]2(C)[C@H]([C@H](OC(=O)c3ccccc3)[C@]3(O)C[C@H](OC(=O)[C@H](O)[C@@H](NC(=O)c4ccccc4)c4ccccc4)C(C)=C1C3(C)C)[C@]1(OC(C)=O)CO[C@@H]1C[C@@H]2O [taxol]
IC50 [1, 4]: 5 µg/mL
IC50 ([1]; control cells): 31 µg/mL
cell death (MTS) ([2]; taxol 20 μg/ml alone, 48 hours): 15%
cell death (MTS) ([2]; taxol 20 μg/ml combined with Bax (Ad/Bax and Ad/Cre, 200 moi)): over 50%
IC50 [3, 4]: 13 µg/mL
IC50 ([3]; control cells): 39 µg/mL
